Reference: patent EP2970215B1, “PYRROLIDINE DERIVATIVES, PHARMACEUTICAL COMPOSITIONS CONTAINING THEM, AND THEIR USE IN THERAPY” (AbbVie Deutschland GmbH & Co. KG, priority 2013, dated 2014)

What follows are compounds tested against T1, human GlyT1c transporter (Homo sapiens, UniProt P48067) (assay: Radioligand binding assay using recombinant CHO cell membranes expressing human GlyT1). Conditions: radioligand binding to human GlyT1c transporter-expressing membranes.
T1 construct: expressed in transfected cells; host or cells: CHO cells (recombinant; line hGlyT1c_5_CHO is named for the uptake assay)
T1 sequence (P48067 1-706): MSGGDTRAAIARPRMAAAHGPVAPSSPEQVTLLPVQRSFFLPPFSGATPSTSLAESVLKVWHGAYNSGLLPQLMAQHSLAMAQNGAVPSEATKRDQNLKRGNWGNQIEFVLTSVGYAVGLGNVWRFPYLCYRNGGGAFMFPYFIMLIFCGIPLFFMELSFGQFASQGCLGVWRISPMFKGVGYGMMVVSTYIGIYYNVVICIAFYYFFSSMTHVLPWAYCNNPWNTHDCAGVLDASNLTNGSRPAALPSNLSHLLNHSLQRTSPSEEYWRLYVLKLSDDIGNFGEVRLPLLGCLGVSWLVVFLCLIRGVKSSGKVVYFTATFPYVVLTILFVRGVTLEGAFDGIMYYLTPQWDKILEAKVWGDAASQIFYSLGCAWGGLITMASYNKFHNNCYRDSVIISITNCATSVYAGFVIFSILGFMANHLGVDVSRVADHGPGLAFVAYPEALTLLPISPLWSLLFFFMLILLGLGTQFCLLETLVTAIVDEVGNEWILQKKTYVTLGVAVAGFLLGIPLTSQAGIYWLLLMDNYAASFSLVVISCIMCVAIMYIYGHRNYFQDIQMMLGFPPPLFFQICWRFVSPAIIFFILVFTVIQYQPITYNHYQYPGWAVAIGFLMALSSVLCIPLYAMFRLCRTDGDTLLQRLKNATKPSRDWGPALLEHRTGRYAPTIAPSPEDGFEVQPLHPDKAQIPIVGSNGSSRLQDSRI
Source text: 2. Radioligand binding assays using recombinant CHO cell membranes expressing human GlyT1: […]

| Ki | Structure (SMILES) |
| --- | --- |
| ≤ 0.01 µM | Cn1cnc(S(=O)(=O)N2C[C@@H](Nc3cccc(C(F)(F)F)c3)[C@H](C3CCCCO3)C2)c1 (relative stereo) [Example 681, Trans-1-[(1-methyl-1H-imidazol-4-yl)sulfonyl]-4-(tetrahydro-2H-pyran-2-yl)-N-[3-(trifluoromethyl)phenyl]pyrrolidin-3-amine] |
| ≤ 0.1 µM | Cn1cnc(S(=O)(=O)N2C[C@@H](Nc3cc(C(F)(F)F)ncn3)[C@H](C3CCCCO3)C2)c1 (relative stereo) [Example 687, N-[Trans-1-[(1-methyl-1H-imidazol-4-yl)sulfonyl]-4-(tetrahydro-2H-pyran-2-yl)pyrrolidin-3-yl]-6-(trifluoromethyl)pyrimidin-4-amine] |
| ≤ 1 µM | CCCNCCO[C@@H]1CN(S(=O)(=O)c2cn(C)cn2)C[C@H]1c1ccc(F)cc1 (relative stereo) [Example 688, N-[2-({Trans-4-(4-fluorophenyl)-1-[(1-methyl-1H-imidazol-4-yl)sulfonyl]pyrrolidin-3-yl}oxy)ethyl]propan-1-amine] |
| ≤ 1 µM | CCCNC(=O)CO[C@@H]1CN(S(=O)(=O)c2cn(C)cn2)C[C@H]1c1ccc(F)cc1 (relative stereo) [Example 689, 2-({Trans-4-(4-fluorophenyl)-1-[(1-methyl-1H-imidazol-4-yl)sulfonyl]pyrrolidin-3-yl}oxy)-N-propylacetamide] |
| ≤ 10 µM | Cn1cnc(S(=O)(=O)N2C[C@@H](Nc3ccc(F)c(F)c3)[C@H](c3ncco3)C2)c1 (relative stereo) [Example 709, Trans-N-[3,4-difluorophenyl]-1-[(1-methyl-1H-imidazol-4-yl)sulfonyl]-4-(1,3-oxazol-2-yl)pyrrolidin-3-amine] |
| ≤ 1 µM | Cn1cnc(S(=O)(=O)N2C[C@@H](OCc3cccc(F)c3)[C@H](c3ccc(F)cc3)C2)c1 (relative stereo) [Example 712, 4-{[trans-3-[(3-fluorobenzyl)oxy]-4-(4-fluorophenyl)pyrrolidin-1-yl]sulfonyl}-1-methyl-1H-imidazole] |
| > 10 µM | Cn1cnc(S(=O)(=O)N2C[C@@H](OCc3ccc(S(C)(=O)=O)cc3)[C@H](c3ccc(F)cc3)C2)c1 (relative stereo) [Example 713, 4-{[trans-3-(4-fluorophenyl)-4-{[4-(methylsulfonyl)benzyl]oxy}pyrrolidin-1-yl]sulfonyl}-1-methyl-1H-imidazole] |
| ≤ 10 µM | Cn1cnc(S(=O)(=O)N2C[C@@H](OCc3cccc(S(C)(=O)=O)c3)[C@H](c3ccc(F)cc3)C2)c1 (relative stereo) [Example 714, 4-{[trans-3-(4-fluorophenyl)-4-{[3-(methylsulfonyl)benzyl]oxy}pyrrolidin-1-yl]sulfonyl}-1-methyl-1H-imidazole] |
| ≤ 0.1 µM | CCCCCCN[C@@H]1CN(S(=O)(=O)c2cn(C)cn2)C[C@H]1c1ncccc1F (relative stereo) [Example 762, Trans-4-(3-fluoropyridin-2-yl)-N-hexyl-1-[(1-methyl-1H-imidazol-4-yl)sulfonyl]pyrrolidin-3-amine] |
| ≤ 1 µM | CCCCCN(CCCCC)[C@@H]1CN(S(=O)(=O)c2cn(C)cn2)C[C@H]1c1ncccc1F (relative stereo) [Example 764, Trans-4-(3-fluoropyridin-2-yl)-1-[(1-methyl-1H-imidazol-4-yl)sulfonyl]-N,N-dipentylpyrrolidin-3-amine] |
| ≤ 0.1 µM | Cn1cnc(S(=O)(=O)N2C[C@@H](Nc3ccc(F)c(C(F)(F)F)c3)[C@H](c3ncccc3F)C2)c1 (relative stereo) [Example 767, Trans-4-(3-fluoropyridin-2-yl)-N-[4-fluoro-3-(trifluoromethyl)phenyl]-1-[(1-methyl-1H-imidazol-4-yl)sulfonyl]pyrrolidin-3-amine] |
| ≤ 0.1 µM | Cn1cnc(S(=O)(=O)N2C[C@@H](Nc3ccc(F)c(OC(F)(F)F)c3)[C@H](c3ncccc3F)C2)c1 (relative stereo) [Example 768, Trans-4-(3-fluoropyridin-2-yl)-N-[4-fluoro-3-(trifluoromethoxy)phenyl]-1-[(1-methyl-1H-imidazol-4-yl)sulfonyl]pyrrolidin-3-amine] |
| ≤ 1 µM | Cc1cc(N[C@@H]2CN(S(=O)(=O)c3cn(C)cn3)C[C@H]2c2ncccc2F)ncc1F (relative stereo) [Example 769, 5-fluoro-N-{trans-4-(3-fluoropyridin-2-yl)-1-[(1-methyl-1H-imidazol-4-yl)sulfonyl]pyrrolidin-3-yl}-4-methylpyridin-2-amine] |
| ≤ 0.1 µM | Cn1cnc(S(=O)(=O)N2C[C@@H](Nc3ccc(F)c(Cl)c3)[C@H](c3ncccc3F)C2)c1 (relative stereo) [Example 771, Trans-N-(3-chloro-4-fluorophenyl)-4-(3-fluoropyridin-2-yl)-1-[(1-methyl-1H-imidazol-4-yl)sulfonyl]pyrrolidin-3-amine] |
| ≤ 10 µM | Cn1cnc(S(=O)(=O)N2C[C@@H](Nc3cc(Cl)ncn3)[C@H](c3ncccc3F)C2)c1 (relative stereo) [Example 772, 6-chloro-N-{trans-4-(3-fluoropyridin-2-yl)-1-[(1-methyl-1H-imidazol-4-yl)sulfonyl]pyrrolidin-3-yl}pyrimidin-4-amine] |
| ≤ 1 µM | Cc1cc(N[C@@H]2CN(S(=O)(=O)c3cn(C)cn3)C[C@H]2c2ncccc2F)ccc1F (relative stereo) [Example 775, Trans-N-(4-fluoro-3-methylphenyl)-4-(3-fluoropyridin-2-yl)-1-[(1-methyl-1H-imidazol-4-yl)sulfonyl]pyrrolidin-3-amine] |
| ≤ 10 µM | Cc1cccc(N[C@@H]2CN(S(=O)(=O)c3cn(C)cn3)C[C@H]2C2CCCOC2)c1 (relative stereo) [Example 781, trans-1-[(1-methyl-1H-imidazol-4-yl)sulfonyl]-N-(3-methylphenyl)-4-(tetrahydro-2H-pyran-3-yl)pyrrolidin-3-amine] |

| Structure (SMILES) | Ki |
| --- | --- |
| Cn1cnc(S(=O)(=O)N2C[C@@H](Nc3cc(C(F)(F)F)ccn3)[C@H](C3CCCCO3)C2)c1 (relative stereo) [Example 682, N-{Trans-1-[(1-methyl-1H-imidazol-4-yl)sulfonyl]-4-[tetrahydro-2H-pyran-2-yl]pyrrolidin-3-yl}-4-(trifluoromethyl)pyridin-2-amine] | ≤ 0.1 µM |
| CCCCCCN(CCCCCC)[C@@H]1CN(S(=O)(=O)c2cn(C)cn2)C[C@H]1c1ncccc1F (relative stereo) [Example 763, Trans-4-(3-fluoropyridin-2-yl)-N,N-dihexyl-1-[(1-methyl-1H-imidazol-4-yl)sulfonyl]pyrrolidin-3-amine] | ≤ 1 µM |
| CCCCCN[C@@H]1CN(S(=O)(=O)c2cn(C)cn2)C[C@H]1c1ncccc1F (relative stereo) [Example 765, Trans-4-(3-fluoropyridin-2-yl)-1-[(1-methyl-1H-imidazol-4-yl)sulfonyl]-N-pentylpyrrolidin-3-amine] | ≤ 1 µM |
| Cn1cnc(S(=O)(=O)N2C[C@@H](Nc3cc(C(F)(F)F)ncn3)[C@H](c3ncccc3F)C2)c1 (relative stereo) [Example 770, N-{Trans-4-(3-fluoropyridin-2-yl)-1-[(1-methyl-1H-imidazol-4-yl)sulfonyl]pyrrolidin-3-yl}-6-(trifluoromethyl)pyrimidin-4-amine] | ≤ 1 µM |
